From PubChem BioAssay AID504363 (Southern Research Specialized Biocontainment Screening …, 2011) come the findings set out here.

The subject of this assay is MAGI-CCR5 HeLa cells, HIV-1 IIIB, beta-gal luminescence, 48 h. Description: X4 HIV-1 replication inhibitors in MAGI cells, dose response, MAGI-CCR5 cells, beta-gal luminescence, 2% serum (AID 504363).

Activity calls are given as the source filed them.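 Rule for the calls: active = compound cutting virus infection of reporter cells by half or more at some tested dose; inactive = the rest.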

The IC50 is the concentration that gives 50% inhibition. For `CC1=C(C(=O)OC(C)C)C(c2ccc(Cl)cc2)n2c(s/c(=C\c3ccc(OCC(=O)O)cc3)c2=O)=N1` (stereo not drawn), the IC50 was > 100 µM (inactive).
Under `CS(=O)(=O)C1=NSC2=NC(=O)/C(=C\c3cccn3-c3cc(Cl)cc(Cl)c3)C(=N)N21` stands 34.3 µM; under `O=C(O)CCCN1C(=O)/C(=C/c2cc3ccccc3o2)SC1=S`, 24.8 µM; under `CCOC(=O)C1=C(C)N=c2s/c(=C\c3ccc(OCC(=O)O)cc3)c(=O)n2C1c1ccc(OC)c(OCC)c1` (stereo not drawn), 30.4 µM.
Under `Cc1c2c(=O)n(-c3nc4ccccc4s3)nc-2cc(O)n1CCC(C)C` stands 2.53 µM.
Under `CCOC(=O)C1=C(c2ccccc2)N=c2s/c(=C\c3ccc(OCC(=O)O)cc3)c(=O)n2C1c1cccc(OC)c1` (stereo not drawn) stands 10.6 µM.
With `CS(=O)(=O)C1=NSC2=NC(=O)/C(=C\c3cccn3-c3cccc(Cl)c3)C(=N)N21`, the IC50 was 35.7 µM.
Under `COc1ccc(Cn2c(O)cc3nn(-c4nc5ccccc5s4)c(=O)c-3c2C)cc1` stands 3.09 µM; under `COc1cccc(-n2cccc2/C=C2/C(=N)N3C(=NC2=O)SN=C3S(C)(=O)=O)c1`, 31.4 µM; under `CCOC(=O)C1=C(C)N=c2sc(=Cc3ccc(OCC(=O)O)cc3)c(=O)n2C1c1ccc(F)cc1` (stereo not drawn), 29 µM.
Under `O=C(O)CCCN1C(=O)/C(=C/c2ccc(-c3ccc(Cl)c(Cl)c3)o2)SC1=S` stands 19.9 µM; under `COc1ccccc1Cn1c(O)cc2nn(-c3nc4ccccc4s3)c(=O)c-2c1C`, 2.59 µM.
Under `CCOC(=O)C1=C(C)N=c2sc(=Cc3ccc(OCC(=O)O)cc3)c(=O)n2C1c1ccccc1OC` (stereo not drawn) stands 34.5 µM.
Consider `Cc1c2c(=O)n(-c3nc4ccccc4s3)nc-2cc(O)n1Cc1ccncc1`, for which the IC50 is 4.44 µM.
Under `Cc1c2c(=O)n(-c3nc4ccccc4s3)nc-2cc(O)n1Cc1ccc(F)cc1` stands 2.63 µM; under `O=C(O)c1ccc(C2Nc3ccc(S(=O)(=O)Nc4cc(Cl)ccc4Cl)cc3C3C=CCC32)cc1` (stereo not drawn), 15.8 µM.
Under `CS(=O)(=O)C1=NSC2=NC(=O)/C(=C\c3cccn3-c3ccc(Cl)c(Cl)c3)C(=N)N21` stands 33.7 µM.
Under `Nc1sc2ccccc2[n+]1Cc1ccc(C(=O)O)cc1` stands > 100 µM (inactive); under `O=C(O)c1ccc(C[n+]2c(-c3ccccc3)csc2Nc2ccccc2)cc1`, 53.9 µM.
Turning to `Cc1c2c(=O)n(-c3nc4ccccc4s3)nc-2cc(O)n1Cc1cccnc1`, the IC50 is 2.81 µM.
Take `COc1ccc(-n2cccc2/C=C2/C(=N)N3C(=NC2=O)SN=C3S(C)(=O)=O)cc1Cl`: the IC50 is 36.8 µM.
Under `CCOC(=O)C1=C(C)N=c2sc(=Cc3ccc(OCC(=O)O)cc3)c(=O)n2C1c1cc(OC)c(OC)c(OC)c1` (stereo not drawn) stands 91.7 µM; under `COc1ccccc1NS(=O)(=O)c1ccc2c(c1)C1C=CCC1C(c1ccc(C(=O)O)cc1)N2` (stereo not drawn), 3.93 µM.
Under `CS(=O)(=O)C1=NSC2=NC(=O)/C(=C\c3cccn3-c3ccc(Cl)cc3)C(=N)N21` stands 36.2 µM.
Under `O=C(O)c1ccc(C[n+]2c(-c3ccc([N+](=O)[O-])cc3)csc2Nc2ccccc2)cc1` stands 31.7 µM; under `Cc1ccc(-n2cccc2/C=C2/C(=N)N3C(=NC2=O)SN=C3S(C)(=O)=O)cc1`, 34.3 µM; under `CS(=O)(=O)C1=NSC2=NC(=O)/C(=C\c3cccn3-c3ccc(F)cc3)C(=N)N21`, 34.9 µM.
For `O=C(O)CCCN1C(=O)/C(=C\c2ccc(-c3ccc(Br)cc3)o2)SC1=S`, the IC50 was 37.9 µM.
`Cc1c2c(=O)n(-c3nc4ccccc4s3)nc-2cc(O)n1Cc1cccs1`: the IC50 is 3.25 µM.
Under `Cc1c2c(=O)n(-c3nc4ccccc4s3)nc-2cc(O)n1C1CC1` stands 1.08 µM; under `Cc1c2c(=O)n(-c3nc4ccccc4s3)nc-2cc(O)n1CCc1ccc(O)cc1`, 4.66 µM.
Under `CS(=O)(=O)C1=NSC2=NC(=O)/C(=C\c3cccn3-c3ccc(Br)cc3)C(=N)N21` stands 34.3 µM.
Under `COc1ccc(-c2ccc(/C=C3\SC(=S)N(CCCC(=O)O)C3=O)o2)cc1` stands 26 µM; under `CCOc1ccc(-n2cccc2/C=C2/C(=N)N3C(=NC2=O)SN=C3S(C)(=O)=O)cc1`, 34.4 µM.
Turning to `CCOC(=O)C1=C(C)N=c2sc(=Cc3ccc(OCC(=O)O)cc3)c(=O)n2C1c1ccc(OC)cc1OC` (stereo not drawn), the IC50 is 33.7 µM.
Under `O=C(O)CCCN1C(=O)/C(=C\c2ccc(-c3cccc(Cl)c3)o2)SC1=S` stands 28.7 µM.
Under `Cc1ccc(-n2cccc2/C=C2/C(=N)N3C(=NC2=O)SN=C3S(C)(=O)=O)cc1C` stands 35.2 µM; under `CCOC(=O)C1=C(C)N=c2s/c(=C\c3ccc(OCC(=O)O)cc3)c(=O)n2C1c1ccc(Cl)cc1` (stereo not drawn), 24.4 µM.
Under `O=C(O)CCCN1C(=O)/C(=C/c2ccc(-c3cccc(C(F)(F)F)c3)o2)SC1=S` stands 23.4 µM.
For `CCc1ccc(-n2cccc2/C=C2/C(=N)N3C(=NC2=O)SN=C3S(C)(=O)=O)cc1`, the IC50 was 31.9 µM.
With `CCc1ccc(-c2ccc(/C=C3\SC(=S)N(CCCC(=O)O)C3=O)o2)cc1`, the IC50 is 14.8 µM.
Consider `COc1cccc(C2C(C(=O)Nc3ccccc3)=C(C)N=c3sc(=Cc4ccc(OCC(=O)O)cc4)c(=O)n32)c1` (stereo not drawn), for which the IC50 was 39.7 µM.
With `Cc1c2c(=O)n(-c3nc4ccccc4s3)nc-2cc(O)n1Cc1ccccc1Cl`, the IC50 was 4.17 µM.
In the case of `O=C(O)CCC(C(=O)O)N1C(=O)/C(=C\c2ccco2)SC1=S` (stereo not drawn), the IC50 was > 100 µM (inactive).
Under `CS(=O)(=O)C1=NSC2=NC(=O)/C(=C\c3cccn3-c3cccc(C(F)(F)F)c3)C(=N)N21` stands 34.1 µM; under `CS(=O)(=O)C1=NSC2=NC(=O)/C(=C\c3cccn3-c3cccc(F)c3)C(=N)N21`, 36.9 µM; under `Cc1c2c(=O)n(-c3nc4ccccc4s3)nc-2cc(O)n1CCc1cccs1`, 3.7 µM.
`O=C(O)CCCN1C(=O)/C(=C\c2ccc(-c3ccc(Cl)cc3)o2)SC1=S`: the IC50 was 15.2 µM.
Under `CCOC(=O)C1=C(C)N=c2sc(=Cc3ccc(OCC(=O)O)cc3)c(=O)n2C1c1ccccc1` (stereo not drawn) stands 34.4 µM.
Turning to `O=C(O)c1ccc([C@@H]2Nc3ccc(S(=O)(=O)Nc4cccc5ccccc45)cc3[C@@H]3C=CC[C@@H]32)cc1`, the IC50 is 11 µM.
Under `O=C(O)CCCN1C(=O)/C(=C\c2ccc(-c3ccc(F)cc3)o2)SC1=S` stands 20.6 µM.
Under `Cc1ccc(-c2ccc(/C=C3\SC(=S)N(CCCC(=O)O)C3=O)o2)cc1` stands 20.6 µM; under `COc1ccc(CCn2c(O)cc3nn(-c4nc5ccccc5s4)c(=O)c-3c2C)cc1`, 20.5 µM.
